Assay results published in patent US8865744B1, “(Cyano-dimethyl-methyl)-isoxazoles and -[1,3,4]thiadiazoles” (Boehringer Ingelheim International GmbH, priority 2013, dated 2014).
Where two headings read alike, the source gives them in different places.

Columns and labels:
[1] = biological target: T1, human CB2R (Homo sapiens, UniProt P34972); assay: CB2 cAMP (Assay 1): In vitro testing of CB2 potency; type: cell-based
T1 construct: host or cells: CHO cells

[2] = biological target: T2, human CB1R (Homo sapiens, UniProt P21554); assay: CB1 cAMP (Assay 2): In vitro testing of CB1 potency; type: cell-based
T2 construct: host or cells: CHO cells
T2 sequence (P21554 whole entry): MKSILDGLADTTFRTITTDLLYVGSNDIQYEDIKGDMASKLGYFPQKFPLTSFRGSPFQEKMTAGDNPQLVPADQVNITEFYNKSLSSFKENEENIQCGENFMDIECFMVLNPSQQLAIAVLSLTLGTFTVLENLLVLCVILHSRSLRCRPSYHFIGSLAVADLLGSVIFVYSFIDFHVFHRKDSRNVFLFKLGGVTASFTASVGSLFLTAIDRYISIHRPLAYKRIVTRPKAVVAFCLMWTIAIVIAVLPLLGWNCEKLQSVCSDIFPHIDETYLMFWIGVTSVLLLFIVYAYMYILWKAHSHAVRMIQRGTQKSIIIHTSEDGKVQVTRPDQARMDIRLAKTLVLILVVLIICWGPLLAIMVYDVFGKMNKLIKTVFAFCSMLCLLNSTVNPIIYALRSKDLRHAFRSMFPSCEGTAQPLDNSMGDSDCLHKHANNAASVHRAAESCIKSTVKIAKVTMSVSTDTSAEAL

T1 sequence (P34972 whole entry): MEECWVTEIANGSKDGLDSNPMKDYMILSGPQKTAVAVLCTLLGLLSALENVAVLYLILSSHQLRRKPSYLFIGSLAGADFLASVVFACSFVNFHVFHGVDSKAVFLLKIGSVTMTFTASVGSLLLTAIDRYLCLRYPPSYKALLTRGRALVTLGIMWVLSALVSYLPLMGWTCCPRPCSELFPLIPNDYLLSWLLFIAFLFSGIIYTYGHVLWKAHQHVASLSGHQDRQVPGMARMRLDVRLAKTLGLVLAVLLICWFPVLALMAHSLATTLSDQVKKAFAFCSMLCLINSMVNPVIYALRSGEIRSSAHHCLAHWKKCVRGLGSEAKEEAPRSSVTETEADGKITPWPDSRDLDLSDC

EC50 ([1]; read-out: CB2 EC50) [µM] | EC50 ([2]; read-out: CB1 EC50) [µM] | SMILES | EC50 [1] [µM] | EC50 [2] [µM]
0.00068 | 8.08 | CN(CC1CCOCC1)C(C)(C)C(=O)Nc1cc(C(C)(C)CO)no1 [Example 7 in WO2010147792] |  | 
 |  | CN(CC1CCOCC1)C(C)(C)C(=O)Nc1nnc(C(C)(C)C#N)s1 [Example 7, N-[5-(Cyano-dimethyl-methyl)-[1,3,4]thiadiazol-2-yl]-2-methyl-2-[methyl(tetrahydro-pyran-4-ylmethyl)-amino]-propionamide] | 0.025 | > 200
0.00085 | 3.1 | CN(C1CCN(S(C)(=O)=O)CC1)C(C)(C)C(=O)Nc1cc(C(C)(C)CO)no1 [Example 47 in WO2010147792] |  | 
0.008 | > 200 | CC(C)(C#N)c1cc(NC(=O)C(C)(C)S(=O)(=O)C2CCOCC2)on1 [Example 3] |  | 
 |  | CC(C)(O)c1cc(NC(=O)C(C)(C)S(=O)(=O)C2CCOCC2)on1 [Example 133 WO2010036630] | 0.14 | > 200
 |  | CN(C1CCN(S(C)(=O)=O)CC1)C(C)(C)C(=O)Nc1nnc(C(C)(C)C#N)s1 [Example 8] | 0.0043 | 69
 |  | COCC(C)(C)c1cc(NC(=O)C(C)(C)S(=O)(=O)CC2CCOCC2)on1 [Example 17 in WO2010036630] | 0.03 | 8.6
0.00036 | 39.4 | CN(CC1CCOCC1)C(C)(C)C(=O)Nc1cc(C(C)(C)C#N)no1 [Example 4] |  | 
 |  | CC(C)(C#N)c1cc(NC(=O)C(C)(C)S(=O)(=O)CCCC(F)(F)F)on1 [Example 1, N-[3-(Cyano-dimethyl-methyl)-isoxazol-5-yl]-2-methyl-2-(4,4,4-trifluoro-butane-1-sulfonyl)-propionamide] | 0.018 | 104
 |  | CC(C)(CO)c1cc(NC(=O)C(C)(C)S(=O)(=O)C2CCOCC2)on1 [Example 2 in WO2010036630] |  | 150
0.00027 | 0.923 | COCC(C)(C)c1cc(NC(=O)C(C)(C)N(C)CC2CCOCC2)on1 [Example 46 in WO2010147792] |  | 
0.00023 | 2.5 | CN(C1CCN(S(C)(=O)=O)CC1)C(C)(C)C(=O)Nc1cc(C(C)(C)C#N)no1 [Example 5] |  | 
 |  | CC(C)(C#N)c1cc(NC(=O)C(C)(C)S(=O)(=O)CC2CCOCC2)on1 [Example 2, N-[3-(Cyano-dimethyl-methyl)-isoxazol-5-yl]-2-methyl-2-(tetrahydro-pyran-4-ylmethanesulfonyl)-propionamide] | 0.104 | > 200

SMILES | EC50 ([1]; read-out: CB2 EC50) [µM] | EC50 ([2]; read-out: CB1 EC50) [µM] | EC50 [1] [µM] | EC50 [2] [µM]
CN(CC1CCOCC1)C(C)(C)C(=O)Nc1nnc(C(C)(C)CO)s1 [Example 30 in WO2010147792] | 0.0054 | 120 |  | 
CC(C)(CO)c1cc(NC(=O)C(C)(C)S(=O)(=O)CC2CCOCC2)on1 [Example 1 in WO2010036630] | 0.088 |  |  | 
